{"source": "ChEMBL document CHEMBL5120901", "about": "“Batatasin III, a Constituent of Dendrobium scabrilingue, Improves Murine Pain-like Behaviors with a Favorable CNS Safety Profile” (J Nat Prod, 2022)", "key": {"[1]": {"tested_on": "RAW264.7", "assay": "Anti-inflammartory activity in mouse RAW264.7 cells assessed as inhibition of LPS-induced NO production pretreated with compound for 1 hr followed by incubation with LPS for 12 hrs by Griess reagent based analysis", "assay_type": "functional, cell-based", "settings": "dose 12.5-50 µM, time 13.0 hrs, DDE = dose-dependent effect"}, "[2]": {"assay": "Toxicity in naive ICR mouse assessed as effect on food intake at 50 mg/kg, ip measured after 24 hrs", "assay_type": "organism-based", "settings": "in vivo"}, "[3]": {"assay": "CNS toxicity in naive ICR mouse assessed as spontaneous locomotor activity by measuring rearing behaviour at 50 mg/kg, ip and measured for 30 mins by LABORAS automated behavioral analysis", "assay_type": "organism-based", "settings": "in vivo, 0.5 h"}, "[4]": {"tested_on": "BV-2", "assay": "Anti-inflammartory activity against LPS-activated […] cells assessed as reduction in TNF-alpha levels pretreated with compound for 1 hr followed by co-incubation with LPS for 24 hrs by ELISA", "assay_type": "functional, cell-based", "settings": "Mus musculus, dose 12.5-50 µM, time 25.0 hrs, DDE = dose-dependent effect"}, "[5]": {"assay": "CNS toxicity in naive ICR mouse assessed as spontaneous locomotor activity by measuring distance travelled in arena at 50 mg/kg, ip and measured for 2 hrs by LABORAS automated behavioral analysis", "assay_type": "organism-based", "settings": "in vivo"}, "[6]": {"assay": "CNS toxicity in naive ICR mouse assessed as spontaneous locomotor activity at 50 mg/kg, ip and measured for 2 hrs by LABORAS automated behavioral analysis", "assay_type": "organism-based", "settings": "in vivo"}, "[7]": {"assay": "Toxicity in naive ICR mouse assessed as effect on water intake at 50 mg/kg, ip measured after 24 hrs", "assay_type": "organism-based", "settings": "in vivo"}, "[8]": {"tested_on": "BV-2", "assay": "Anti-inflammatory activity in […] cells assessed as inhibition of LPS-induced NO production pretreated with compound for 1 hr followed by coincubation with LPS for 24 hrs by Griess reagent based analysis", "assay_type": "functional, cell-based", "settings": "Mus musculus, dose 12.5-50 µM, time 25.0 hrs, DDE = dose-dependent effect"}, "[9]": {"tested_on": "BV-2", "assay": "Anti-inflammartory activity against LPS-activated […] cells assessed as reduction in IL-6 levels pretreated with compound for 1 hr followed by co-incubation with LPS for 24 hrs by ELISA", "assay_type": "functional, cell-based", "settings": "Mus musculus, dose 12.5-50 µM, time 25.0 hrs, DDE = dose-dependent effect"}, "[10]": {"tested_on": "Mus musculus", "assay": "Anti-inflammatory activity against LPS-induced inflammatory pain-like behaviour ICR mouse model assessed as improvement in locomotor activity by measuring decrease in immobility behaviour at 50 mg/kg, ip treated with LPS for 2 hrs followed by drug administration for 1 hr and measured for 5 mins by LABORAS analysis", "assay_type": "functional, organism-based", "settings": "time 65.0 min"}, "[11]": {"tested_on": "Mus musculus", "assay": "Anti-inflammatory activity against LPS-induced inflammatory pain-like behaviour ICR mouse model assessed as improvement in locomotor activity by measuring increase in distance travelled in LABORAS arena at 50 mg/kg, ip treated with LPS for 2 hrs followed by drug administration for 1 hr and measured for 5 mins by LABORAS analysis", "assay_type": "functional, organism-based", "settings": "time 65.0 min"}, "[12]": {"assay": "CNS toxicity in naive ICR mouse assessed as spontaneous locomotor activity by measuring rearing behaviour at 50 mg/kg, ip and measured for 2 hrs by LABORAS automated behavioral analysis", "assay_type": "organism-based", "settings": "in vivo"}, "[13]": {"assay": "CNS toxicity in naive ICR mouse assessed as spontaneous locomotor activity by measuring immobility behaviour at 50 mg/kg, ip and measured for 2 hrs by LABORAS automated behavioral analysis", "assay_type": "organism-based", "settings": "in vivo"}, "[14]": {"assay": "CNS toxicity in naive ICR mouse assessed as spontaneous locomotor activity at 50 mg/kg, ip and measured for 30 mins by LABORAS automated behavioral analysis", "assay_type": "organism-based", "settings": "in vivo, 0.5 h"}, "[15]": {"assay": "CNS toxicity in naive ICR mouse assessed as motor coordination at 50 mg/kg, ip measured after 240 mins by rotarod test", "assay_type": "organism-based", "settings": "in vivo, 4 h"}, "[16]": {"assay": "CNS toxicity in naive ICR mouse assessed as spontaneous locomotor activity by measuring anaimal's movement speed in arena at 50 mg/kg, ip and measured for 2 hrs by LABORAS automated behavioral analysis", "assay_type": "organism-based", "settings": "in vivo"}, "[17]": {"tested_on": "Mus musculus", "assay": "Analgesic activity against formalin-induced inflammatory pain-like behaviour ICR mouse model assessed as inhibition of hind paw licking behaviour at 12.5 to 50 mg/kg, ip administered 60 mins prior to formalin challenge and measured after 10 to 40 mins by formalin test", "assay_type": "functional, organism-based", "settings": "dose 12.5-50 mg/kg, time 70-100 min, DDE = dose-dependent effect"}, "[18]": {"tested_on": "Mus musculus", "assay": "Anti-inflammatory activity against LPS-induced inflammatory pain-like behaviour ICR mouse model assessed as improvement in locomotor activity by measuring increased mobile behaviours at 50 mg/kg, ip treated with LPS for 2 hrs followed by drug administration for 1 hr and measured for 5 mins by LABORAS analysis", "assay_type": "functional, organism-based", "settings": "time 65.0 min"}, "[19]": {"assay": "CNS toxicity in naive ICR mouse assessed as spontaneous locomotor activity by measuring climbing behaviour at 50 mg/kg, ip and measured for 2 hrs by LABORAS automated behavioral analysis", "assay_type": "organism-based", "settings": "in vivo"}, "[20]": {"tested_on": "RAW264.7", "assay": "Anti-inflammartory activity against LPS-activated mouse RAW264.7 cells assessed as reduction in IL-6 levels pretreated with compound for 1 hr followed by incubation with LPS for 12 hrs by ELISA", "assay_type": "functional, cell-based", "settings": "dose 12.5-50 µM, time 13.0 hrs, DDE = dose-dependent effect"}, "[21]": {"tested_on": "RAW264.7", "assay": "Cytotoxicity against mouse RAW264.7 cells assessed as reduction in cell viability at 100 uM incubated for 24 hrs by MTT assay", "assay_type": "toxicity, cell-based", "settings": "raw264.7, 24 h"}, "[22]": {"tested_on": "BV-2", "assay": "Cytotoxicity against […] cells assessed as reduction in cell viability at 100 uM incubated for 24 hrs by MTT assay", "assay_type": "toxicity, cell-based", "settings": "mouse, bv-2, 24 h"}, "[23]": {"assay": "CNS toxicity in naive ICR mouse assessed as spontaneous locomotor activity by measuring distance travelled in arena at 50 mg/kg, ip and measured for 30 mins by LABORAS automated behavioral analysis", "assay_type": "organism-based", "settings": "in vivo, 0.5 h"}, "[24]": {"tested_on": "Mus musculus", "assay": "Anti-inflammatory activity against LPS-induced inflammatory pain-like behaviour ICR mouse model assessed as reduction in IL-6 levels in plasma at 50 mg/kg, ip treated with LPS for 2 hrs followed by drug administration for 1 hr by ELISA", "assay_type": "functional, organism-based"}, "[25]": {"assay": "CNS toxicity in naive ICR mouse assessed as spontaneous locomotor activity by measuring immobility behaviour at 50 mg/kg, ip and measured for 30 mins by LABORAS automated behavioral analysis", "assay_type": "organism-based", "settings": "in vivo, 0.5 h"}, "[26]": {"tested_on": "Mus musculus", "assay": "Anti-inflammatory activity against LPS-induced inflammatory pain-like behaviour ICR mouse model assessed as improvement in locomotor activity by measuring increase in animal's movement speed in LABORAS arena at 50 mg/kg, ip treated with LPS for 2 hrs followed by drug administration for 1 hr and measured for 5 mins by LABORAS analysis", "assay_type": "functional, organism-based", "settings": "time 65.0 min"}, "[27]": {"tested_on": "Mus musculus", "assay": "Anti-inflammatory activity against LPS-induced inflammatory pain-like behaviour ICR mouse model assessed as reduction in TNF-alpha levels in plasma at 50 mg/kg, ip treated with LPS for 2 hrs followed by drug administration for 1 hr by ELISA", "assay_type": "functional, organism-based"}, "[28]": {"assay": "CNS toxicity in naive ICR mouse assessed as spontaneous locomotor activity by measuring animal's movement speed in arena at 50 mg/kg, ip and measured for 30 mins by LABORAS automated behavioral analysis", "assay_type": "organism-based", "settings": "in vivo, 0.5 h"}, "[29]": {"assay": "CNS toxicity in naive ICR mouse assessed as spontaneous locomotor activity by measuring climbing behaviour at 50 mg/kg, ip and measured for 30 mins by LABORAS automated behavioral analysis", "assay_type": "organism-based", "settings": "in vivo, 0.5 h"}, "[30]": {"tested_on": "RAW264.7", "assay": "Anti-inflammartory activity against LPS-activated mouse RAW264.7 cells assessed as reduction in TNF-alpha levels pretreated with compound for 1 hr followed by incubation with LPS for 12 hrs by ELISA", "assay_type": "functional, cell-based", "settings": "dose 12.5-50 µM, time 13.0 hrs, DDE = dose-dependent effect"}, "[31]": {"tested_on": "Mus musculus", "assay": "Analgesic activity against formalin-induced inflammatory pain-like behaviour ICR mouse model assessed as inhibition of hind paw licking behaviour at 50 mg/kg, ip administered 60 mins prior to formalin challenge and measured after 10 to 40 mins by formalin test", "assay_type": "functional", "settings": "time 70-100 min"}, "[32]": {"assay": "Toxicity in naive ICR mouse assessed as effect on body weight at 50 mg/kg, ip measured after 24 hrs", "assay_type": "organism-based", "settings": "in vivo"}}, "note": "Activity calls are given as the source filed them. The calls are words filed in the database; no cut-off is given here."}
{"smiles": "COc1cc(O)cc(CCc2cccc(O)c2)c1", "note": "[BATATASIN III]", "values": [{"measurement": "Activity", "setting": "[1]", "result": "Dde"}, {"measurement": "Activity", "setting": "[2]", "result": "Non-Toxic"}, {"measurement": "Activity", "setting": "[3]", "result": "Non-Toxic"}, {"measurement": "Activity", "setting": "[4]", "result": "Dde"}, {"measurement": "Activity", "setting": "[5]", "result": "Non-Toxic"}, {"measurement": "Activity", "setting": "[6]", "result": "Non-Toxic"}, {"measurement": "Activity", "setting": "[7]", "result": "Non-Toxic"}, {"measurement": "Activity", "setting": "[8]", "result": "Dde"}, {"measurement": "Activity", "setting": "[9]", "result": "Dde"}, {"measurement": "Activity", "setting": "[10]", "result": "Active"}, {"measurement": "Activity", "setting": "[11]", "result": "Active"}, {"measurement": "Activity", "setting": "[12]", "result": "Non-Toxic"}, {"measurement": "Activity", "setting": "[13]", "result": "Non-Toxic"}, {"measurement": "Activity", "setting": "[14]", "result": "Non-Toxic"}, {"measurement": "Activity", "setting": "[15]", "result": "Non-Toxic"}, {"measurement": "Activity", "setting": "[16]", "result": "Non-Toxic"}, {"measurement": "Activity", "setting": "[17]", "result": "Dde"}, {"measurement": "Activity", "setting": "[18]", "result": "Active"}, {"measurement": "Activity", "setting": "[19]", "result": "Non-Toxic"}, {"measurement": "Activity", "setting": "[20]", "result": "Dde"}, {"measurement": "Activity", "setting": "[21]", "result": "Toxic"}, {"measurement": "Activity", "setting": "[22]", "result": "Toxic"}, {"measurement": "Activity", "setting": "[23]", "result": "Non-Toxic"}, {"measurement": "Activity", "setting": "[24]", "result": "Active"}, {"measurement": "Activity", "setting": "[25]", "result": "Non-Toxic"}, {"measurement": "Activity", "setting": "[26]", "result": "Active"}, {"measurement": "Activity", "setting": "[27]", "result": "Active"}, {"measurement": "Activity", "setting": "[28]", "result": "Non-Toxic"}, {"measurement": "Activity", "setting": "[29]", "result": "Non-Toxic"}, {"measurement": "Activity", "setting": "[30]", "result": "Dde"}, {"measurement": "inhibition in vivo at 50 mg/kg", "setting": "[31]", "result": 69.9, "unit": "%"}, {"measurement": "Activity", "setting": "[32]", "result": "Non-Toxic"}]}
